Results as given in PMC6199744, “Development of Chemical Proteomics for the Folateome and Analysis of the Kinetoplastid Folateome” (ACS Infectious Diseases, 2018).
Read-outs that look alike come from different tables or passages of the source.

Columns and labels:
Format in all cases: binding
[1] = biological target: T1, HeLa cell extract proteins (Homo sapiens, UniProt O14979)
T1 construct: endogenous in cells; host or cells: HeLa cell extract
T1 sequence (O14979 1-420): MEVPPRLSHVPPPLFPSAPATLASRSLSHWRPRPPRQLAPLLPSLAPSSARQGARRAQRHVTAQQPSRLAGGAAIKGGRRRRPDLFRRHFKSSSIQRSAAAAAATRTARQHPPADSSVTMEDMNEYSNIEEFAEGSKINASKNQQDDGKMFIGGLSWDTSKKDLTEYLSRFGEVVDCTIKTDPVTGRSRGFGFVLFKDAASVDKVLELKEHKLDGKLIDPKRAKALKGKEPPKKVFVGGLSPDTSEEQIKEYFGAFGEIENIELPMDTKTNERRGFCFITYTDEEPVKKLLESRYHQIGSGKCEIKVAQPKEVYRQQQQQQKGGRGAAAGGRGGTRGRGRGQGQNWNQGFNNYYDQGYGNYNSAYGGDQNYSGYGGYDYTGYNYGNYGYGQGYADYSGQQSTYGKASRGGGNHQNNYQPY

[2] = biological target: T2, HeLa cell extract proteins (Homo sapiens, UniProt P52292)
T2 construct: endogenous in cells; host or cells: HeLa cell extract

[3] = biological target: T3, HeLa cell extract proteins (Homo sapiens, UniProt P52565)
T3 construct: endogenous in cells; host or cells: HeLa cell extract
T3 sequence (P52565 1-204): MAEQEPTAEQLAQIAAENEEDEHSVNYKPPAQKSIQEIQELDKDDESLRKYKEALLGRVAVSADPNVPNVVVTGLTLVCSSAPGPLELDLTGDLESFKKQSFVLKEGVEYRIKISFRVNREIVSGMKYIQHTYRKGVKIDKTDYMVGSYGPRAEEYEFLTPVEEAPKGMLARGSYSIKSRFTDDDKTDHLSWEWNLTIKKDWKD

[4] = biological target: T4, HeLa cell extract proteins (Homo sapiens, UniProt P63241)
T4 construct: endogenous in cells; host or cells: HeLa cell extract
T4 sequence (P63241 whole entry): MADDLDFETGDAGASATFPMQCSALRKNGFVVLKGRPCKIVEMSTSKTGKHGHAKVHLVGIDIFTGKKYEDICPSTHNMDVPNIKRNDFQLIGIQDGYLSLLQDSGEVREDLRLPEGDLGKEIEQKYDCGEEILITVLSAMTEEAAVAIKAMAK

[5] = biological target: T5, HeLa cell extract proteins (Homo sapiens, UniProt Q93008)
T5 construct: endogenous in cells; host or cells: HeLa cell extract
T5 sequence (Q93008 whole entry): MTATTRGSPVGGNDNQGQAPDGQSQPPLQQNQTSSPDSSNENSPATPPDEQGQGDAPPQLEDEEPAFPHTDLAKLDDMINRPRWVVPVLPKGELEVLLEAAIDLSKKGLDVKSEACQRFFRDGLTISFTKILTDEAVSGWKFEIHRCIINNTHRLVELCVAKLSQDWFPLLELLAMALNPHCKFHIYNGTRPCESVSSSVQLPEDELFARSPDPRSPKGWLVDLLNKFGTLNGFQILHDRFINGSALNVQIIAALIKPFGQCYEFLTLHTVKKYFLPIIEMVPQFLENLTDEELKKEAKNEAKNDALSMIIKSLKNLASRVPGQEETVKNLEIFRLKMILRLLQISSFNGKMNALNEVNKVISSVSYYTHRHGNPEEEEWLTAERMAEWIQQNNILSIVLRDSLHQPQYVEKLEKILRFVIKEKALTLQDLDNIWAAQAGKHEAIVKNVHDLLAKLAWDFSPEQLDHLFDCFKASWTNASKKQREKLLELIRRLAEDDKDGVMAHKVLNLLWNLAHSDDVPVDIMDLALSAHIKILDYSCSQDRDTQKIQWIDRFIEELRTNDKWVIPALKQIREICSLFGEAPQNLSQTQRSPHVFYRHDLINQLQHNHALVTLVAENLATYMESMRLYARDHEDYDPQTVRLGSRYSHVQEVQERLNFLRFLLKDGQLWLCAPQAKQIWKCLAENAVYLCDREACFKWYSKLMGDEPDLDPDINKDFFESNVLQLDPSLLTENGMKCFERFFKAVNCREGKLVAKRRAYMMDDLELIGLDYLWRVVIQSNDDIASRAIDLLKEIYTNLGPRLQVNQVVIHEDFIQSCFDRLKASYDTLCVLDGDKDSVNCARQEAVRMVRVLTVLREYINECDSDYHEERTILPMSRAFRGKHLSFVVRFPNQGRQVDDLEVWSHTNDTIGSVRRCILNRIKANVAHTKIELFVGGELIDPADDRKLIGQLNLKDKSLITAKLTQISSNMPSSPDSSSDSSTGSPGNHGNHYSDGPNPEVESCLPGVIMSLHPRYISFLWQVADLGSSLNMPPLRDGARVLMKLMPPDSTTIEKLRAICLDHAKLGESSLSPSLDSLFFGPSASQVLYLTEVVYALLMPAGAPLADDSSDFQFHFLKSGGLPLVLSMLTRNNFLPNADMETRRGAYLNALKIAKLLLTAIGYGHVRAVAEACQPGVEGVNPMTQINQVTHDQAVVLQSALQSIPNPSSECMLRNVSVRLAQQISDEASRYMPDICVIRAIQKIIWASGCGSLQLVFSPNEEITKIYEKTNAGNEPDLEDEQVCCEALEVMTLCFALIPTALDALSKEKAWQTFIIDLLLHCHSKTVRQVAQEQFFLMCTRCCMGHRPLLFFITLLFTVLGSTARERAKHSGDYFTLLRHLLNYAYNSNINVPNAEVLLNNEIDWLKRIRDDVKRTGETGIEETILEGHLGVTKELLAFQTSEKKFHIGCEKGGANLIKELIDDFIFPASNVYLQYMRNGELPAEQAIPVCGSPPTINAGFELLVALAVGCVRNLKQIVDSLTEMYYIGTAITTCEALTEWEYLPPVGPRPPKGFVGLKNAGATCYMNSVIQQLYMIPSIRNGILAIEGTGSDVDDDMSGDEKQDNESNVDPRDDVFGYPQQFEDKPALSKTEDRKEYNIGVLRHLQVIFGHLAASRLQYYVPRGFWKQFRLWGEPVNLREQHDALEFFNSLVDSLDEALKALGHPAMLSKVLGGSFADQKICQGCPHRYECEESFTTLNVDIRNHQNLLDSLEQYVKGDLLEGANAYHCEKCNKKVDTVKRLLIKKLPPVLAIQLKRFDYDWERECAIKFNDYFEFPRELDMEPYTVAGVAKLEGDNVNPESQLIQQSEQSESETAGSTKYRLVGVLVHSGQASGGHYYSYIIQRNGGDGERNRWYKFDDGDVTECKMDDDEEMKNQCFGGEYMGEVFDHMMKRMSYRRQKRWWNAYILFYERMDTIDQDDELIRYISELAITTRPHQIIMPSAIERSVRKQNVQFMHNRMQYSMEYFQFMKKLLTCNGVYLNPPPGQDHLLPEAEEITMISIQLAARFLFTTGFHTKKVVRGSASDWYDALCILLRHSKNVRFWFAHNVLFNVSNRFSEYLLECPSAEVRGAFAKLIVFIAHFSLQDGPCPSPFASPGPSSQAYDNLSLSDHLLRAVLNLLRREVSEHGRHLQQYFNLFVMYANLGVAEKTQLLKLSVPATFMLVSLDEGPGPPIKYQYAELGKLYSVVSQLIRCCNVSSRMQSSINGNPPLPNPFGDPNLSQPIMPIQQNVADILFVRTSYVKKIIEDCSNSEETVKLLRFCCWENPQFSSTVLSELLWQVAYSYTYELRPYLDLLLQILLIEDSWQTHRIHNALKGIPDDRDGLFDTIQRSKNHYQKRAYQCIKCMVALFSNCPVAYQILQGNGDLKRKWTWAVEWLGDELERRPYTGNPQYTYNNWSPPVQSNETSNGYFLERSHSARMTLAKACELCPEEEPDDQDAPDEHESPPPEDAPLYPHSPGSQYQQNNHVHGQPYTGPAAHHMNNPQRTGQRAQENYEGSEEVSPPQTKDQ

[6] = biological target: T6, HeLa cell extract proteins (Homo sapiens, UniProt Q99805)
T6 construct: endogenous in cells; host or cells: HeLa cell extract
T6 sequence (Q99805 29-663): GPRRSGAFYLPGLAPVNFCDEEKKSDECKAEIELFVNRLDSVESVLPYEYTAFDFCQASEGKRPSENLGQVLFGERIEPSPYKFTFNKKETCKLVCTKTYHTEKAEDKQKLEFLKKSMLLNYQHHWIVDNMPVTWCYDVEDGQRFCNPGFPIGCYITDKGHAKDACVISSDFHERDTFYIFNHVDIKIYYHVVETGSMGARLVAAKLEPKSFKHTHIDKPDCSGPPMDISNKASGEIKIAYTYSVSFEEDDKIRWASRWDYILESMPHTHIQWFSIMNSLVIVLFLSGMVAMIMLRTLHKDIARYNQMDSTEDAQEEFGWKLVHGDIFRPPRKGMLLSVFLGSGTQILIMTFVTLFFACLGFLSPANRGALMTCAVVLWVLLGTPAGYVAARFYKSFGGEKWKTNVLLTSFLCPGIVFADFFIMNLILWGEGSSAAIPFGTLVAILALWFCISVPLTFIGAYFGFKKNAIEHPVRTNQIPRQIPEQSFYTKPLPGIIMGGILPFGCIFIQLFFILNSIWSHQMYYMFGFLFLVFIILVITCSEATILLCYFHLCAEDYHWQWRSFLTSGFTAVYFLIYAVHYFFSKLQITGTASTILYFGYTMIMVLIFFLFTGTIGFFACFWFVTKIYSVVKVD

[7] = biological target: T7, HeLa cell extract proteins (Homo sapiens, UniProt Q9H4A4)
T7 construct: endogenous in cells; host or cells: HeLa cell extract
T7 sequence (Q9H4A4 whole entry): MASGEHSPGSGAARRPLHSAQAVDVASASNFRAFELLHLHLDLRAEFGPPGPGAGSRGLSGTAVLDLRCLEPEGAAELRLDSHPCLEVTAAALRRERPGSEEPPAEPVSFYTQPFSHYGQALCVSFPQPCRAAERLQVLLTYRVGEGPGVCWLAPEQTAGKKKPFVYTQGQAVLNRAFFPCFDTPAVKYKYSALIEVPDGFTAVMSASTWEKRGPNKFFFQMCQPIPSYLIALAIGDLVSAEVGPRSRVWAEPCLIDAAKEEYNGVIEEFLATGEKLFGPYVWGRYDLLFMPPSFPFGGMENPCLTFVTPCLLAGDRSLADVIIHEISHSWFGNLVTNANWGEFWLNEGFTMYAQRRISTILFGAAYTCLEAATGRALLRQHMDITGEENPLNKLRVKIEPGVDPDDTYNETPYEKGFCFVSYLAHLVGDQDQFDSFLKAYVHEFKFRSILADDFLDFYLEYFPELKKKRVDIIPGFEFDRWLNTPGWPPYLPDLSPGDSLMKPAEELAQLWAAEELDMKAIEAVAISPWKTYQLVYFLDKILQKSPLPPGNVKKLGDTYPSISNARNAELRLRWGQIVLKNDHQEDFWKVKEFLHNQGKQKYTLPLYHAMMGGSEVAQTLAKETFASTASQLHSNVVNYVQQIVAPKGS

[8] = biological target: T8, HeLa cell extract proteins (Homo sapiens, UniProt O60684); details: protein KPNA6; HeLa
T8 construct: endogenous in cells; host or cells: HeLa cell extract

[9] = biological target: T9, HeLa cell extract proteins (Homo sapiens, UniProt O75396); details: protein SEC22B; HeLa
T9 construct: endogenous in cells; host or cells: HeLa cell extract
T9 sequence (O75396 1-215): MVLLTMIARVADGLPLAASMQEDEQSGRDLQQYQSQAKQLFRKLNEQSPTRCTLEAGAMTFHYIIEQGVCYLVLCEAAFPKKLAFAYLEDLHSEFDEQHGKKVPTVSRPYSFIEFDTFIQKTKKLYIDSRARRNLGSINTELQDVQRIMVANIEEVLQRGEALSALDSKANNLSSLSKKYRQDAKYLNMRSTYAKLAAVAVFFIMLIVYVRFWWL

[10] = biological target: T10, HeLa cell extract proteins (Homo sapiens, UniProt P14866); details: protein HNRNPL; HeLa
T10 construct: endogenous in cells; host or cells: HeLa cell extract
T10 sequence (P14866 1-589): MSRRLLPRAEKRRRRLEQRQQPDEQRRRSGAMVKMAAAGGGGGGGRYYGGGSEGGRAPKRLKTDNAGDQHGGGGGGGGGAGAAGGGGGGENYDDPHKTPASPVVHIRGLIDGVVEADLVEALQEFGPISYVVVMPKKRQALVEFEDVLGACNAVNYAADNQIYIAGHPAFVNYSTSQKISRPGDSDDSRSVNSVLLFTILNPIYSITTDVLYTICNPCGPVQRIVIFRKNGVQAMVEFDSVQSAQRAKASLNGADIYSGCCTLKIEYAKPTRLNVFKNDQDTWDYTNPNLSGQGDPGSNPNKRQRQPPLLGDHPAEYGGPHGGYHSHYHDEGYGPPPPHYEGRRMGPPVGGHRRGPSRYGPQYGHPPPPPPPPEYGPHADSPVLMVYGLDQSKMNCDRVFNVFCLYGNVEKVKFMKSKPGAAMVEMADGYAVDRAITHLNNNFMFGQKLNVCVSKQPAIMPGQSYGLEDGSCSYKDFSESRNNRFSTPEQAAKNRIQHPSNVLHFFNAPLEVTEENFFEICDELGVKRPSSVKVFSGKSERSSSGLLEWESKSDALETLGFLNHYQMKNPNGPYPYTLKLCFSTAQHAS

[11] = biological target: T11, HeLa cell extract proteins (Homo sapiens, UniProt P55884); details: protein EIF3B; HeLa
T11 construct: endogenous in cells; host or cells: HeLa cell extract

[12] = biological target: T12, HeLa cell extract proteins (Homo sapiens, UniProt P68371); details: captured protein TUBB2C; HeLa
T12 construct: endogenous in cells; host or cells: HeLa cell extract
T12 sequence (P68371 whole entry): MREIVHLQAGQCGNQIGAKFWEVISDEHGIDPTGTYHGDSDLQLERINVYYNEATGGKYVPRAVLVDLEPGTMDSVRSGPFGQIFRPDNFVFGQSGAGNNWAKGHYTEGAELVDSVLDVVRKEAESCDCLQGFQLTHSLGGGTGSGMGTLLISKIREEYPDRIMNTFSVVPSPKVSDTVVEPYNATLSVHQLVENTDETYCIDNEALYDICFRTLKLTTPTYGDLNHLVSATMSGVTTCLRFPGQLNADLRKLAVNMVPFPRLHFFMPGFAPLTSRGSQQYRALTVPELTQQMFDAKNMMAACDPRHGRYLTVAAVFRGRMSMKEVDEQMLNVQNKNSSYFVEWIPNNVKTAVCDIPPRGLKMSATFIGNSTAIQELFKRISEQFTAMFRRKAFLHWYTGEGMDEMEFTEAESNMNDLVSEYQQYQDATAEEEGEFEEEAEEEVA

[13] = biological target: T13, HeLa cell extract proteins (Homo sapiens, UniProt Q9Y5V3); details: captured protein MAGED1; HeLa
T13 construct: endogenous in cells; host or cells: HeLa cell extract
T13 sequence (Q9Y5V3 1-778): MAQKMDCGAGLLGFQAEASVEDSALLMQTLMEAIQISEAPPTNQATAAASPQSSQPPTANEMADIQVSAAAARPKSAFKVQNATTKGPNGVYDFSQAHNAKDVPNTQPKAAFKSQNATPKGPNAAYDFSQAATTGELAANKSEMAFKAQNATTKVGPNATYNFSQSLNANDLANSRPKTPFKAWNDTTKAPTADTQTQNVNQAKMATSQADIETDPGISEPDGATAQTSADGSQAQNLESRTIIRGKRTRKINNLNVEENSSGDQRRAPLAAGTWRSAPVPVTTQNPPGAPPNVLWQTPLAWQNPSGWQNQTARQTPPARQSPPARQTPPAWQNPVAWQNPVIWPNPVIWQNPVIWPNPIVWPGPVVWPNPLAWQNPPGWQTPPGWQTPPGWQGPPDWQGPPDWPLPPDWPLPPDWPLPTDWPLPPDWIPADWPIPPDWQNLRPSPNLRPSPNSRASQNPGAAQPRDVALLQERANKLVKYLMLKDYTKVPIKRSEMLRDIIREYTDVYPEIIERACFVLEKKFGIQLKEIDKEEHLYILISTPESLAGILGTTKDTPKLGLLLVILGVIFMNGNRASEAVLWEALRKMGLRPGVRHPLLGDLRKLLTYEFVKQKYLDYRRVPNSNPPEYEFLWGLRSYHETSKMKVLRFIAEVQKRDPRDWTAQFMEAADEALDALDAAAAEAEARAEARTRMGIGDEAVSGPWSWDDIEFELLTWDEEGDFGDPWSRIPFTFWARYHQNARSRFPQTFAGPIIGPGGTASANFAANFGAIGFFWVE

## Nc1nc2c(c(=O)[nH]1)N(C=O)C(CNc1ccc(C(=O)N[C@@H](CCC(=O)O)C(=O)O)cc1)CN2 (stereo partly shown) [LEU, leucovorin]
[1]; HeLa, captured protein HNRPDL
  fold changes relative to vehicle control: 1.09
[2]; HeLa, captured protein KPNA2
  fold changes relative to vehicle control: 1.01
[3]; HeLa, protein ARHGDIA
  fold changes relative to vehicle control: 1.03
[4]; HeLa, captured protein EIF5A
  fold changes relative to vehicle control: 1.12
[5]; HeLa, captured protein USP9X
  fold changes relative to vehicle control: 1.13
[6]; HeLa, protein TM9SF2
  fold changes relative to vehicle control: 0.74
[7]; protein RNPEP, HeLa
  fold changes relative to vehicle control: 0.93

## Nc1nc2[nH]cc(CCc3ccc(C(=O)N[C@@H](CCC(=O)O)C(=O)O)cc3)c2c(=O)[nH]1 [PTX, pemetrexed]
[1]
  fold changes relative to vehicle control: 1.02
[2]
  fold changes relative to vehicle control: 1
[3]
  fold changes relative to vehicle control: 1.08
[4]
  fold changes relative to vehicle control: 1.32
[5]
  fold changes relative to vehicle control: 1.17
[6]
  fold changes relative to vehicle control: 0.76
[7]
  fold changes relative to vehicle control: 0.81

## CCCCCCOc1ccc(Cc2cnc(N)nc2N)cc1 [compound 1]
[8]
  fold changes relative to vehicle control: 1.16
[9]
  fold changes relative to vehicle control: 0.96
[10]
  fold changes relative to vehicle control: 1
[11]
  fold changes relative to vehicle control: 0.99
[12]
  fold changes relative to vehicle control: 1.03
[13]
  fold changes relative to vehicle control: 0.98

## CCCCCCOc1cccc(Cc2cnc(N)nc2N)c1 [compound 2]
[8]
  fold changes relative to vehicle control: 1.34
[9]
  fold changes relative to vehicle control: 1.41
[10]
  fold changes relative to vehicle control: 1.02
[11]
  fold changes relative to vehicle control: 1.68
[12]
  fold changes relative to vehicle control: 0.94
[13]
  fold changes relative to vehicle control: 0.78

## Nc1nc2cccc(-c3ccccc3)c2n1Cc1ccc(Cl)c(Cl)c1 [compound 3]
[8]
  fold changes relative to vehicle control: 1.15
[9]
  fold changes relative to vehicle control: 0.89
[10]
  fold changes relative to vehicle control: 0.88
[11]
  fold changes relative to vehicle control: 1.2
[12]
  fold changes relative to vehicle control: 1.02
[13]
  fold changes relative to vehicle control: 0.88

## NCCOCCOCC(=O)Nc1nc2ncc(CNc3ccc(C(=O)NC(CCC(=O)O)C(=O)O)cc3)nc2c(=O)[nH]1 (stereo not shown) [compound 6]
[1]; HeLa, captured protein HNRPDL
  fold changes relative to vehicle control: 1.06
[2]; HeLa, captured protein KPNA2
  fold changes relative to vehicle control: 1.13
[3]; HeLa, protein ARHGDIA
  fold changes relative to vehicle control: 1.18
[4]; HeLa, captured protein EIF5A
  fold changes relative to vehicle control: 1.61
[5]; HeLa, captured protein USP9X
  fold changes relative to vehicle control: 1.31
[6]; HeLa, protein TM9SF2
  fold changes relative to vehicle control: 0.84
[7]; protein RNPEP, HeLa
  fold changes relative to vehicle control: 0.99

## NCCCNc1ccc(C(=O)NC(CCC(=O)O)C(=O)O)cc1 (stereo not shown) [compound 7]
[1]; HeLa, captured protein HNRPDL
  fold changes relative to vehicle control: 1.03
[2]; HeLa, captured protein KPNA2
  fold changes relative to vehicle control: 0.99
[3]; HeLa, protein ARHGDIA
  fold changes relative to vehicle control: 1.08
[4]; HeLa, captured protein EIF5A
  fold changes relative to vehicle control: 1.02
[5]; HeLa, captured protein USP9X
  fold changes relative to vehicle control: 1.26
[6]; HeLa, protein TM9SF2
  fold changes relative to vehicle control: 0.82
[7]; protein RNPEP, HeLa
  fold changes relative to vehicle control: 0.74
